# Laboratory results from patent US9834525B2, “Inhibitors of paxillin function and related compositions and methods” (UNIVERSITY OF TENNESSEE RESEARCH FOUNDATION, priority 2015, dated 2017).
# Entries after “also recorded” stand apart in the source; their conditions may differ.
# Legend:
# Mel 270 primary-UM cells = experiment: CFSE cellular proliferation, Mel 270; type: cell-based, human; conditions: 96 hrs culture, 1 μM for the last 24 hrs
# Protocol: Harvested cells were resuspended at a concentration of 1.0×10^6 cells/mL in warm PBS/1% FBS. Cells were labeled with […] (Invitrogen) for 5 minutes at 37° C. then quenched on cold growth media (final volume 20 mL) for 10 minutes, twice. Cultured unlabeled cells were used as controls.
# To test the hypothesis that inhibition of paxillin will reduce cellular proliferation UM cell lines were labeled with carboxyfluorescein succunimidyl ester (CFSE), a cell tracking dye, and cultured for 96 hrs. A group of cells received treatment with compound (II-4) for the last 24 hours. Maximum CFSE fluorescence was controlled using labeled cells prior culture −0 hr. Negative control was established using unlabeled cells cultured in parallel. Histograms in FIG. 15D show 96 hrs cultured cells divided with a 1-log shift or reduction in CFSE intensity. […] Cell proliferation was not affected in the 92.1 cell line. […]
# FIG. 15: The paxillin inhibitor Compound (II-4) selectively affects cellular proliferation of primary UM cells that become metastatic. […] Unlabeled cells were used to control fluorescence. […] B. Quantitation of experiment +/−SD including primary UM that becomes metastatic (Mel 270), metastatic (OMM 2.1) and primary (92.1) UM cells. *P=0.0007 and **P=0.0005. […] Quantitation of VLA-4 protein levels +/−SD from n=3. […]
# murine OIR model = experiment: Murine OIR model, retinal whole-mounts; type: in vivo, mouse; conditions: daily ocular administration 0.5 mg/kg or 5 mg/kg in ME, P12 to P17, vs vehicle
# Text: Topical delivery of compound (II-4) using an ocular ME was chosen for several reasons. First, intravitreal injection is technically challenging and, unlike intraocular delivery of proteins, is unnecessary for delivery of small molecules. […] The murine OIR model was used to examine the effect of compound (II-4) on the natural history of VEGF-induced proliferative retinopathy. Briefly, pups were exposed to 75% oxygen at post-natal day 7 (P7) for 5 days and then returned to normal oxygen at P12. Mice received daily ocular administration of either compound (II-4) (0.5 mg/kg or 5 mg/kg) or vehicle (ME) from P12 to P17. Eyes were enucleated at P17 and retinal whole-mounts stained for endothelial cells followed by quantification of avascular area and vascular tuft formation.
# FIG. 22: Oxygen-Induced Retinopathy (OIR). (A:) P17 retinal whole-mounts were stained for endothelial cells. […] Data represent mean (±SD). N=8-14/group. […] (C): Quantitation of panel A neovascular area. (D): Quantitation of panel A avascular area. (E): Quantitation of panel B total paxillin.
smiles,measurement,setting,value
COc1cc(C2OC(=O)Nc3c2ccc2ccccc32)cc(OC)c1OC (stereo not drawn) [compound II-4],cell proliferation (CFSE),Mel 270 primary-UM cells,caused a reduction in cell proliferation
same,hypoxia-induced neovascularization (neovascular area),murine OIR model,striking inhibition; also recorded: reductions in NV
same,retinal avascular area,murine OIR model,modest increase; also recorded: increases in AV
